Data reported in BindingDB's records for PubMed 10336515 (Banyu Pharmaceutical, 1999).

How the values were obtained:
Endothelin-1 receptor = target: T1, Endothelin-1 receptor (Homo sapiens, UniProt P25101)
T1 sequence (P25101 whole entry): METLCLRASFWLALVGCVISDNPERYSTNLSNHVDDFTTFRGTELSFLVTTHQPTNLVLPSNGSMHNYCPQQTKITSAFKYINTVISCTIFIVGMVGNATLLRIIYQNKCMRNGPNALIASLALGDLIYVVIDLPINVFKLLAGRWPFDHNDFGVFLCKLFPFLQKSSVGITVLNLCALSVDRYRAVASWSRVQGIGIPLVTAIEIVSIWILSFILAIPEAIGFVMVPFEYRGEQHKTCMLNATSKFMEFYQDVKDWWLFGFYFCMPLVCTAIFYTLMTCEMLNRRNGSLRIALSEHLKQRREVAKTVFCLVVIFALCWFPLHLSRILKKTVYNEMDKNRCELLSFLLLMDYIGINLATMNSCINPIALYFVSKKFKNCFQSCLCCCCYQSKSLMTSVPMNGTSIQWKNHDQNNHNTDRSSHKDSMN

[1] = target: T2, Endothelin receptor type B (Homo sapiens, UniProt P24530)
T2 sequence (P24530 whole entry): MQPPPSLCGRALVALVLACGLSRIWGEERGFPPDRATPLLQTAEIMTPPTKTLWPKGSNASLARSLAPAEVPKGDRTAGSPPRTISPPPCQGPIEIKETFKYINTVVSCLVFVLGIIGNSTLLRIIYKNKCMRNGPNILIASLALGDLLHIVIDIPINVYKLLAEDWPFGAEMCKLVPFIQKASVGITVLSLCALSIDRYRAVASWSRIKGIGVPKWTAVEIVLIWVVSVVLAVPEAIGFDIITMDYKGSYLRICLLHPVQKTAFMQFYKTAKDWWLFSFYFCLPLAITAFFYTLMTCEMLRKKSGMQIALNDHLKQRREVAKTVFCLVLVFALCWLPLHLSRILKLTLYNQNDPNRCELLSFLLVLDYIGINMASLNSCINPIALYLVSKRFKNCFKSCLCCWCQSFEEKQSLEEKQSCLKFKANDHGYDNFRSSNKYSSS

SMILES: CCCCc1ccc2c(n1)[C@@H](c1ccc(OC)cc1C[C@H](C)C(=O)O)[C@H](C(=O)O)[C@H]2c1ccc2c(c1)OCO2 [J-104132]
- Ki (Endothelin-1 receptor): 0.03 nM
- Ki [1]: 0.1 nM
